Data as given in patent publication US20110039762A1, “TARGETED ANTIMICROBIAL MOIETIES” (C3 JIAN, INC., priority 2009, published 2011).
“Also recorded” adds a separate entry of the source. Bridge positions count the residues as written; N and C are the ends. Square brackets hold non-standard residues; d marks the D form. Ends that are not written are not given here. dOrn = NCCC[C@@H](N)C(=O)O; Orn = NCCC[C@H](N)C(=O)O; Aib = CC(C)(N)C(=O)O

Key:
S. pneumoniae = experiment: Kill or inhibit growth/proliferation; morphology, biofilm and growth disruption (Tables 5, 6); type: cell-based, Streptococcus pneumoniae; parameters: key: A: Peptide aggregates; B: Less hyphal formation; Clumps; Diffuse clumps and small polyps; F: Diffuse growth; H: Thin; I: Growth inhibition; Microcolony formation; Rippled; Small polyps; Thick; W: Halo formation on top, microlonies on bottom; further: test concentration or dose not given here
[1] = test system: microorganisms (e.g., bacteria, yeasts, fungi); experiment: Targeting peptide binding to target microorganisms (Table 3); details: preferably 1x PBS; for Target(s) (microorganisms bound by the targeting peptide): peptide binding in aqueous buffers varied by peptide solubility; for Target(s): microorganism the targeting peptide binds, binding in aqueous buffers varied by peptide solubility

Substance | Target(s) (microorganisms bound by the targeting peptide) [1] | also measured
PF-220 (VDPADDGTRHIRPEDGDPIEIDE; Peptide with targeting and/or antimicrobial activity) |  | Organism, effect (S. pneumoniae): S. pneumoniae (H)
PF-783 (FTSEVRGVFTYRVNKAGLITNMRGYWNLDMMTFGNQE; Peptide with targeting and/or antimicrobial activity) | Mycobacteria spp. | 
PF-784 (MAMTTVDNIVGLVIAVALMAFLFAALLFPEKF; Peptide with targeting and/or antimicrobial activity) | Mycobacteria spp. | 
PF-785 (MRPQHSPAGKAFVVKKITHEQS; Peptide with targeting and/or antimicrobial activity) | Mycobacteria spp. | 
PF-786 (LSERERRRLKRGII; Peptide with targeting and/or antimicrobial activity) | Mycobacteria spp. | 
PF-787 (MTERQRRALLKQHPEVVSWSDYLEKRKRRTGTAG; Peptide with targeting and/or antimicrobial activity) | Mycobacteria spp. | 
PF-788 (GLITVFAGTARILQLRRAAKKTHAAALR; Peptide with targeting and/or antimicrobial activity) | Mycobacteria spp. | 
PF-789 (PRGAQSGHG; Peptide with targeting and/or antimicrobial activity) | Mycobacteria spp. | 
PF-790 (PAGPDHLDQRDHR; Peptide with targeting and/or antimicrobial activity) | Mycobacteria spp. | 
PF-791 (IFLTTQNTDYSEHNAA; Peptide with targeting and/or antimicrobial activity) | S. mutans | 
PF-792 (ALHASGIQAI; Peptide with targeting and/or antimicrobial activity) | S. mutans | 
PF-793 (YTQ[Aib]NNASAYAMLLTNKDTVP) | S. mutans | 
PF-794 (NLYFENQGN; Peptide with targeting and/or antimicrobial activity) | S. mutans | 
PF-795 (ALHKSGIQVIADWVPDQIYN; Peptide with targeting and/or antimicrobial activity) | S. mutans | 
PF-796 (YTQSNIPTAYALMLSNKDSI; Peptide with targeting and/or antimicrobial activity) | S. mutans | 
PF-797 (WYYFDNNGYM; Peptide with targeting and/or antimicrobial activity) | S. mutans | 
PF-798 (ALHSKGIKVMADWVPDQMYA; Peptide with targeting and/or antimicrobial activity) | S. mutans | 
PF-799 (YTHYNTALSYALLLTNKSSVP; Peptide with targeting and/or antimicrobial activity) | S. mutans | 
PF-800 (WYYFDNNGYM; Peptide with targeting and/or antimicrobial activity) | S. mutans | 
PF-C003 (FCSVDHDVITIAADHVKQGAEA; Peptide with targeting and/or antimicrobial activity) | A. naeslundii; also recorded: P. gingivalis; also recorded: S. mutans | 
PF-C008 (AQPRRTWLVNFGEVPSPGLTNDGMPDH; Peptide with targeting and/or antimicrobial activity) | A. naeslundii | 
PF-C034 (HPMPITVRSRKPGPLTAPSEH; Peptide with targeting and/or antimicrobial activity) | S. mutans; also recorded: E. coli | 
PF-C045 (FREGMGWPLSNEGSPTAPLPKHRNQV; Peptide with targeting and/or antimicrobial activity) | A. naeslundii; also recorded: T. denticola | 
PF-C050 (QGLARPVLRRIPL; Peptide with targeting and/or antimicrobial activity) | A. naeslundii; also recorded: S. mutans | 
PF-C063 (SHFRKGD; Peptide with targeting and/or antimicrobial activity) | A. naeslundii; also recorded: F. nucleatum; also recorded: S. mutans | 

Substance | Target(s) (microorganisms bound by the targeting peptide) [1] | also measured
PF-C068 (LNLFASI; Peptide with targeting and/or antimicrobial activity) | A. naeslundii; also recorded: F. nucleatum; also recorded: S. mutans | 
PF-C080 (INIPGLF; Peptide with targeting and/or antimicrobial activity) | A. naeslundii; also recorded: F. nucleatum; also recorded: S. mutans | 
PF-C093 (EKLGTMV; Peptide with targeting and/or antimicrobial activity) | A. naeslundii; also recorded: F. nucleatum; also recorded: S. mutans | 
PF-C134 (NELMKYPATLTATATTPGIKYSHLCSVCL; Peptide with targeting and/or antimicrobial activity) | A. naeslundii; also recorded: F. nucleatum; also recorded: P. gingivalis; also recorded: S. mutans; also recorded: T. denticola | 
PF-C160 (AASGFTYCASNGVWHPY; Peptide with targeting and/or antimicrobial activity) | F. nucleatum | 
PF-C259 (AEIQPHCLSVL; Peptide with targeting and/or antimicrobial activity) | F. nucleatum; also recorded: S. mutans | 
PF-C271 (FFPSYYSIIITYF; Peptide with targeting and/or antimicrobial activity) | A. naeslundii; also recorded: F. nucleatum; also recorded: P. gingivalis; also recorded: S. mutans; also recorded: T. denticola | 
PF-C273 (KNMLKRRMKQKRLFDEEDRLRVLSKYTKSYY; Peptide with targeting and/or antimicrobial activity) | A. naeslundii; also recorded: P. gingivalis; also recorded: S. mutans; also recorded: T. denticola | 
PF-C285 (FTIIELKKQKIKHGENNKKTAHPLNEPFCARA; Peptide with targeting and/or antimicrobial activity) | A. naeslundii; also recorded: F. nucleatum; also recorded: P. gingivalis; also recorded: S. mutans; also recorded: T. denticola | 
PF-S004 (VLLNIFRTLLEFFSPSNAPGAEDVPLPDTQA; Peptide with targeting and/or antimicrobial activity) | S. epidermidis and MRSA and C. jeikeium | 
PF-S007 (VVAGVVLLTALAVGSKRKEKKQIKEIQRLLAATR; Peptide with targeting and/or antimicrobial activity) | S. epidermidis and MRSA | 
PF-S015 (IENLERGARRPP; Peptide with targeting and/or antimicrobial activity) | S. epidermidis and MRSA and C. jeikeium | 
PF-S018 (GMPQIPRLRI; Peptide with targeting and/or antimicrobial activity) | S. epidermidis and M. luteus and C. albicans and MRSA and E. faecalis and C. jeikeium and C. jejuni | 
PF-S023 (MAEDERRALKRRTNRGRTRTRKRITV; Peptide with targeting and/or antimicrobial activity) | S. epidermidis and MRSA | 
PF-S024 (SKRGRKRKDRRKKKANHGKRPNS; Peptide with targeting and/or antimicrobial activity) |  | Target(s) [1]: Corynebacteria
PF-S026 (TELKYNGEEYLLLTQRDILAVIEK; Peptide with targeting and/or antimicrobial activity) | S. epidermidis and MRSA and C. jeikeium | 
PF-S029 (TSDTQSQSPWLFDNADIVNIYPVQLMHSSDND; Peptide with targeting and/or antimicrobial activity) | M. luteus; also recorded: P. mirabilis; also recorded: E. coli; also recorded: C. albicans; also recorded: C. jeikeium; also recorded: C. jejuni | 
Py Pf 12 ([dS]KG[Orn][dS]SGK[dOrn]ES; lactam 8-C; not fully specified) |  | Target(s) [1]: P. fluorescens
TT-305 (ARNALNMRDVPVDAAIIGIIDGMDEE; Peptide with targeting and/or antimicrobial activity) |  | Target(s) [1]: F. nucleatum
TT-306 (KILNEAEGKLLKVIEKNGEIDIEEI; Peptide with targeting and/or antimicrobial activity) |  | Target(s) [1]: F. nucleatum
TT-307 (NGDKKAKEELDKWDEVIKELNIQF; Peptide with targeting and/or antimicrobial activity) |  | Target(s) [1]: F. nucleatum
TT-308 (GLVIIPNLIALIILFSQVRQQTKDYFSNPKLSSR; Peptide with targeting and/or antimicrobial activity) |  | Target(s) [1]: F. nucleatum
TT-309 (EPLPLTKYDKKDTEMKKVFKEILAGKVGYEKEEE; Peptide with targeting and/or antimicrobial activity) |  | Target(s) [1]: F. nucleatum
TT-310 (TKLKKNNKLLSAKKENTLHTKDK; Peptide with targeting and/or antimicrobial activity) |  | Target(s) [1]: F. nucleatum
TT-311 (AIFDAMHNL; Peptide with targeting and/or antimicrobial activity) |  | Target(s) [1]: S. mutans; also recorded: S. sobrinus
